The results in this text go back to US8937188B2, “Process for the preparation of lasofoxifene tartrate” (Glenmark Generics Ltd., priority 2009, dated 2015).

For the molecule `COc1ccc2c(c1)CCC=C2c1ccc(OCCN2CCCC2)cc1` [Example 1, 1-{2-[4-(6-Methoxy-3,4-dihydronaphthalene-1-yl)phenoxy]ethyl}pyrrolidine], the melting point – broadly, the temperature of the solid-liquid transition – was in the range of 71 to 75 °C.
